Assay: Excipient compatibility: montelukast sodium/excipient mixtures stored at 55° C. for 48 hours, sulfoxide of formula (I) by HPLC
Assay type: physicochemical
Conditions: for % Sulfoxide of Formula (I), 0 hours: by weight relative to montelukast sodium, before storage
Experimental: Comparative testing with montelukast sodium was performed to determine the conditions which cause the degradation of montelukast sodium into the corresponding sulfoxide. Compositions of montelukast sodium and each of the excipients of the prior art tablets were prepared and subjected to stressed storage conditions. The amount of the corresponding sulfoxide present in each of the compositions was measured by high performance liquid chromatography (“HPLC”) both before and after storage.
Sample mixtures of montelukast sodium and each of the individual excipients were prepared. Each sample was stored at 55° C. for 48 hours. The percentage by weight of sulfoxide of formula (I) relative to montelukast sodium in each sample was measured at 0 hours and at 48 hours by HPLC. HPLC was performed on a Beta-Basic C18 analytical column (150×4.6 mm I.D.), packed with 5 μm diameter particles (Thermo Election Corporation). The mobile phase was a mixture of acetonitrile and 20 mM KH2PO4 (60:40) and its flow-rate was 1.5 mL/min. The UV detector was set at 225 nm or 281 nm and the column temperature was 40° C.

Row | % Sulfoxide of Formula (I), 0 hours [%] | increase of the amount of the corresponding sulfoxide in the composition over the storage period (in the presence of microcrystalline cellulose, stressed storage conditions) | Compound
1 | 0.63 | – | CC(C)(O)c1ccccc1CC[C@@H](SCC1(CC(=O)[O-])CC1)c1cccc(/C=C/c2ccc3ccc(Cl)cc3n2)c1.[Na+] [Sample 1, Montelukast sodium]
2 | 0.26 | – | CC(C)(O)c1ccccc1CC[C@@H](SCC1(CC(=O)[O-])CC1)c1cccc(/C=C/c2ccc3ccc(Cl)cc3n2)c1.[Na+] [Sample 7, Montelukast sodium]
3 | – | over 250% | CC(C)(O)c1ccccc1CC[C@@H](SCC1(CC(=O)[O-])CC1)c1cccc(/C=C/c2ccc3ccc(Cl)cc3n2)c1.[Na+] [montelukast sodium, [R-(E)]-1-[[[1-[3-[2-(7-chloro-2-quinolinyl)ethenyl]phenyl]-3-[2-(1-hydroxy-1-methylethyl)phenyl]propyl]thio]methyl]cyclopropaneacetic acid, monosodium salt]
